Key:
Muscarinic M1 = Muscarinic M1 (Homo sapiens, UniProt P11229); experiment: Eurofins Lead Profiling radioligand binding; conditions: title: 30 μM
Tachykinin NK1 = Tachykinin NK1 (Homo sapiens, UniProt P25103); experiment: Eurofins Lead Profiling radioligand binding; conditions: title: 30 μM
Dopamine D1 = Dopamine D1 (Homo sapiens, UniProt P21728); experiment: Eurofins Lead Profiling radioligand binding; conditions: title: 30 μM
[1] = test system: 72 GPCRs, ion channels and transporters; experiment: Eurofins Lead Profiling panel (whole panel); format: binding; conditions: for ancillary pharmacology panel result: 72 GPCRs, ion channels and transporters
Serotonin (5-HT2B) = Serotonin (5-HT2B) (Homo sapiens, UniProt P41595); experiment: Eurofins Lead Profiling radioligand binding; conditions: title: 30 μM
Sequence of Serotonin (5-HT2B) (P41595 whole entry): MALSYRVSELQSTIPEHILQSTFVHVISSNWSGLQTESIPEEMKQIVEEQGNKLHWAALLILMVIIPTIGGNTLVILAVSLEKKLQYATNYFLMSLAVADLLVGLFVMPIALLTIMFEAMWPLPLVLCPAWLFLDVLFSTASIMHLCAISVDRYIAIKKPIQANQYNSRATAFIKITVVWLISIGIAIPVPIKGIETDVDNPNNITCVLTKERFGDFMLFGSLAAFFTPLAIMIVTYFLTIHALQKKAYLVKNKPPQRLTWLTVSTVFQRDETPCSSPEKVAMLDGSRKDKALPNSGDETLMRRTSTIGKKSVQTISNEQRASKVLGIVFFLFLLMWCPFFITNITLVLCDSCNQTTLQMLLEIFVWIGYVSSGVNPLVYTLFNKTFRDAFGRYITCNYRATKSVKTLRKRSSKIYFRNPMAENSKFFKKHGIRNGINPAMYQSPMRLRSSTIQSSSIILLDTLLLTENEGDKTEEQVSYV

[2] = target: Nicotinic Acetylcholine α1, Bungarotoxin (Homo sapiens, UniProt P02708+P07510+Q07001); experiment: Eurofins Lead Profiling radioligand binding; conditions: read-out: % Inhibition at 10 µM
Muscarinic M3 = Muscarinic M3 (Homo sapiens, UniProt P20309); experiment: Eurofins Lead Profiling radioligand binding; conditions: title: 30 μM
Sequence of Muscarinic M3 (P20309 whole entry): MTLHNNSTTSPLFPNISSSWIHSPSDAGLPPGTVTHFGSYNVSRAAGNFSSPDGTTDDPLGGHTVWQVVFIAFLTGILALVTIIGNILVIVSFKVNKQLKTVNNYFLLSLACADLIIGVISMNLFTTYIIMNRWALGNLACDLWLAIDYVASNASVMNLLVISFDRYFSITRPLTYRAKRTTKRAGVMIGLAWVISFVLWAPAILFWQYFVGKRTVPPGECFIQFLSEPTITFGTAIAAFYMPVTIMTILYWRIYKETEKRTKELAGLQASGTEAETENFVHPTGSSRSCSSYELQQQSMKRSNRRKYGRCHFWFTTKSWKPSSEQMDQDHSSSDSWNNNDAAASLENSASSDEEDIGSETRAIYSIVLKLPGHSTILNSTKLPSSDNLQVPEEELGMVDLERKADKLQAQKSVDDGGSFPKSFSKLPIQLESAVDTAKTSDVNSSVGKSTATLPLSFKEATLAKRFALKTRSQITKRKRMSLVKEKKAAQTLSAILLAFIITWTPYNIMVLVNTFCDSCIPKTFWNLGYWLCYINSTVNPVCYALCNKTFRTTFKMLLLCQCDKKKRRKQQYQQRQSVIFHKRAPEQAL

Neuropeptide Y Y1 = Neuropeptide Y Y1 (Homo sapiens, UniProt P25929); experiment: Eurofins Lead Profiling radioligand binding; conditions: title: 30 μM
Imidazoline I2, Central = experiment: Eurofins Lead Profiling radioligand binding; set-up: species or system Rat; conditions: title: 30 μM
Rolipram = experiment: Eurofins Lead Profiling radioligand binding; set-up: species or system Rat; conditions: title: 30 μM
Dopamine D2S = Dopamine D2S (Homo sapiens, UniProt P14416); experiment: Eurofins Lead Profiling radioligand binding; conditions: title: 30 μM
Sequence of Dopamine D2S (P14416 1-414 isoform P14416-2): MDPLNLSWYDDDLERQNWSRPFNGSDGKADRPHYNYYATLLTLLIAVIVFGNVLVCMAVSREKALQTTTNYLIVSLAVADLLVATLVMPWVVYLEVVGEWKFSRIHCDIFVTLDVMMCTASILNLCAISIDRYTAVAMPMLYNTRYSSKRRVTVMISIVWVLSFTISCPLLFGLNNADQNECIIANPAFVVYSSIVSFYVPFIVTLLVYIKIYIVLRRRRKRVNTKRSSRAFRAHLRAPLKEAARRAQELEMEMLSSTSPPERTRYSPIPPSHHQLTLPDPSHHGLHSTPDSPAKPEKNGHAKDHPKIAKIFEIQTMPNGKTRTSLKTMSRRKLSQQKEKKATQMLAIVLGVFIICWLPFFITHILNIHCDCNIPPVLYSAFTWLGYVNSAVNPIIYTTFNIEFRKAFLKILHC

[3] = target: Epidermal Growth Factor (EGF) (Homo sapiens, UniProt P00533); experiment: Eurofins Lead Profiling radioligand binding; conditions: title: 30 μM
Sequence of Epidermal Growth Factor (EGF) (P00533 25-1210): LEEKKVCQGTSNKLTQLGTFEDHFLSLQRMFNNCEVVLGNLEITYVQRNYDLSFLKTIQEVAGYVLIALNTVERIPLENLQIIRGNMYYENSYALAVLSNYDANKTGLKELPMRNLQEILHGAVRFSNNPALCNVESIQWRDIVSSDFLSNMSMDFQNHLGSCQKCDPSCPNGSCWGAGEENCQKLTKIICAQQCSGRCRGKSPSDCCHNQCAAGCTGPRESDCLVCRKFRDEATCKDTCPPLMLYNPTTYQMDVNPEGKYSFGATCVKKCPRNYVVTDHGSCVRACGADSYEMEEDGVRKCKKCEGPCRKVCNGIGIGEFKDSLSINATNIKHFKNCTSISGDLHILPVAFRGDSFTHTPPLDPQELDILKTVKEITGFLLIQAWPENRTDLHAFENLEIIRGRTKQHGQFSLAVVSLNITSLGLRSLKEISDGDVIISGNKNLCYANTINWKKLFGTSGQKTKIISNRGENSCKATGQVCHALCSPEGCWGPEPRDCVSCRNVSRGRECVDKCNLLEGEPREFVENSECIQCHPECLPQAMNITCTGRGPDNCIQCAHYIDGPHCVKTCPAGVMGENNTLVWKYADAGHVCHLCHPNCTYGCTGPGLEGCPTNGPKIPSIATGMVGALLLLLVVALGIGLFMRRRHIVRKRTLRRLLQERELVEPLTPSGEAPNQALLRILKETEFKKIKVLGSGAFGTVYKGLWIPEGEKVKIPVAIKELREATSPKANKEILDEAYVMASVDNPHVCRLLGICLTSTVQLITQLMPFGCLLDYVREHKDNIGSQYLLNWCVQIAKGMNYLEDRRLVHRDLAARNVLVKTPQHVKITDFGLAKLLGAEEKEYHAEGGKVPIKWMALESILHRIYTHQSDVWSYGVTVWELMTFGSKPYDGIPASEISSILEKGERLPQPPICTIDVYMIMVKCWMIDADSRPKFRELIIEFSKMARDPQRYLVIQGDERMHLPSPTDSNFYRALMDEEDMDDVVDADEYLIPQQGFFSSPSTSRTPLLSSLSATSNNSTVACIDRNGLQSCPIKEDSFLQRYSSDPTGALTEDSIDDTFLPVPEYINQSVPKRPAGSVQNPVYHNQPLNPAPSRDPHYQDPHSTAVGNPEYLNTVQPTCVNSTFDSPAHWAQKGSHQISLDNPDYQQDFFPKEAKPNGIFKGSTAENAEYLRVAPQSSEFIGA

[4] = mouse brain homogenate binding; format: in vitro ADME; conditions: read-out: mouse brain fu
Vanilloid = Vanilloid (Rattus norvegicus, UniProt O35433); experiment: Eurofins Lead Profiling radioligand binding; conditions: title: 30 μM
Sequence of Vanilloid (O35433 whole entry): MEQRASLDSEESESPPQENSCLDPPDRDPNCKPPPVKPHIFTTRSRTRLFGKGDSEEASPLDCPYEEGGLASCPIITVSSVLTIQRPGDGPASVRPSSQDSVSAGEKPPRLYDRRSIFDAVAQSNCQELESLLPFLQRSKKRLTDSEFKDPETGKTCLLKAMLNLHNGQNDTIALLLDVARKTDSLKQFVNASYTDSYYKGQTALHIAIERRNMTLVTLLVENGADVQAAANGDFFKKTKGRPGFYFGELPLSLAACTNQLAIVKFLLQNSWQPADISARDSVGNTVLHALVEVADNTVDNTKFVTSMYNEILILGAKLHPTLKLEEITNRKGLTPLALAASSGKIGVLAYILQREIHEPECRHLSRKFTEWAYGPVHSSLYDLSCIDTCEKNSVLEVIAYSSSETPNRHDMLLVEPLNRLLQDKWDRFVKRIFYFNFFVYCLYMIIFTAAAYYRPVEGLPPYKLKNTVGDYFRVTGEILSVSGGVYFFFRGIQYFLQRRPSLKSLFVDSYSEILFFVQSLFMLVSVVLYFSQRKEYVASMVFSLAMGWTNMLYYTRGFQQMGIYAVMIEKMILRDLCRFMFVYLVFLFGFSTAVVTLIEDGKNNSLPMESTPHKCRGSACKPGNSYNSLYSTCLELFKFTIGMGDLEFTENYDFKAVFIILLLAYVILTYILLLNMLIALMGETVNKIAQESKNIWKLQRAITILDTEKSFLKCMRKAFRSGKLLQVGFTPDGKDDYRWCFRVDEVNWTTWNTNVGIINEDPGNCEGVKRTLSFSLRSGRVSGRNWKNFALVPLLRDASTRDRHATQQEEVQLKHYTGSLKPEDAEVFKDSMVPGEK

Glucocorticoid = Glucocorticoid (Homo sapiens, UniProt P04150); experiment: Eurofins Lead Profiling radioligand binding; conditions: title: 30 μM
rat PO PK study = format: in vivo; conditions: male, Sprague-Dawley, 3 mg/kg PO
Description: Plasma and brain tissue samples originating from in vivo studies were analyzed by electrospray ionization using an AB Sciex Q-TRAP 5500 (Foster City, CA) that was coupled to a Shimadzu LC-20AD pump (Columbia, MD) and a Leap Technologies CTC PAL auto-sampler (Carrboro, NC). Analytes were separated by gradient elution using a C18 column (3 x 50 mm, 3 mm; Fortis Technologies Ltd, Cheshire, UK) that was thermostated at 40 °C. HPLC mobile phase A was 0.1% formic acid in water (pH unadjusted); mobile phase B was 0.1% formic acid in acetonitrile (pH […]
min, with an isocratic hold for 0.5 min, before transitioning to 10% B over 0.05 min. The column was re-equilibrated (1 min) before the next sample injection. The total run time was 2.55 min, and the HPLC flow rate was 0.5 ml/min. The source temperature was set at 500 °C, and mass spectral analyses were performed using a Turbo-Ion spray source in positive ionization mode (5.0-kV spray voltage) and using multiple-reaction monitoring of transitions specific for the analytes. All data were analyzed using AB Sciex Analyst 1.5.1 software.
Brain plasma concentration ratio (Kp) was calculated by dividing brain concentration by plasma concentration for each animal. Unbound brain to unbound plasma concentration ratio (Kp,uu) is calculated using the following formula: Kp,uu = (Brain ng/g x brain fu)/(plasma ng/ml x plasma fu).
For determination of the plasma concentration-time profile, compounds were formulated in methyl cellulose and administered as a 3 mg/kg PO dose to male C57BL/6 mouse or SD rat (n = 2). For the same determination, compounds were formulated in HP-β-CD and administered as a 0.1 mg/kg IV dose to male beagle dog (n = 2).
Plasma samples originating from in vivo studies were analyzed by electrospray ionization using a Q-TRAP 5500 (AB Sciex) that was coupled to a Prominence UFLC XR (Shimadzu Corporation).
Analytes were separated by gradient elution using a Shim-pack XR-ODS II (2 x 75 mm, 2.2μm, Shimadzu Corporation) that was thermostated at 40 °C. HPLC mobile phase A was 5 mM ammonium acetate containing 0.2% formic acid in water (pH unadjusted); mobile phase B was […]
hold for 1.5 min, before transitioning to 10% B over 0.1 min. The column was re-equilibrated (0.9 min) before the next sample injection. The total run time was 4.0 min, and the HPLC flow rate was 0.5 ml/min. The source temperature was set at 600 °C, and mass spectral analyses were performed using a Turbo-Ion spray source in positive ionization mode and using multiple-reaction

[5] = test system: Glycine, Strychnine-Sensitive; experiment: Eurofins Lead Profiling radioligand binding; set-up: species or system Rat; conditions: title: 30 μM
Histamine H2 = Histamine H2 (Homo sapiens, UniProt P25021); experiment: Eurofins Lead Profiling radioligand binding; conditions: title: 30 μM
Sequence of Histamine H2 (P25021 whole entry): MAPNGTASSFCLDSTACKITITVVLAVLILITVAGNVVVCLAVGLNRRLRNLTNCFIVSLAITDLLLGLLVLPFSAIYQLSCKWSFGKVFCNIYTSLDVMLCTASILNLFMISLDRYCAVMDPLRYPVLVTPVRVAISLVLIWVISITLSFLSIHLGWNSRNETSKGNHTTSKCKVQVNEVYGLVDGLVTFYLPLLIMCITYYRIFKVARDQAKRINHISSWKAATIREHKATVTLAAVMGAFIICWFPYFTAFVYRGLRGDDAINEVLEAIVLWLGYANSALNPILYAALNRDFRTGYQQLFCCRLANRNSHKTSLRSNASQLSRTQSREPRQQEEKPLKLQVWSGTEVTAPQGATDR

TREK-2 = target: T1, TREK-2 (Homo sapiens, UniProt P57789); experiment: human 86Rb flux K2P selectivity panel; format: cell-based
T1 sequence (P57789 1-538): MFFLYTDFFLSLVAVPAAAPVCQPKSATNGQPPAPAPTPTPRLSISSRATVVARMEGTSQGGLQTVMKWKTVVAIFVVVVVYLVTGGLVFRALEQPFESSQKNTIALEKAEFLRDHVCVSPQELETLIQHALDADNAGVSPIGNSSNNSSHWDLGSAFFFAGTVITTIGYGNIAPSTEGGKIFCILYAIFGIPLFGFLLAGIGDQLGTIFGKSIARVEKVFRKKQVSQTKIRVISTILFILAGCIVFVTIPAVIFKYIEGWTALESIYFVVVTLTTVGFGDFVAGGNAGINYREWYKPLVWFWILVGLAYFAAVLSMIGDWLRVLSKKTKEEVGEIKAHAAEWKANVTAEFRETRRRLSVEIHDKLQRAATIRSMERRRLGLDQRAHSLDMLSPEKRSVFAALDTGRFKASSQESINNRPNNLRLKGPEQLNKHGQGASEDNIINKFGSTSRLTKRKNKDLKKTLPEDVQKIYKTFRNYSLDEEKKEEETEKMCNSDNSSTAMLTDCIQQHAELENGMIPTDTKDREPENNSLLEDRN

Glutamate, NMDA, Glycine = Glutamate, NMDA, Glycine (Rattus norvegicus, UniProt P35439); experiment: Eurofins Lead Profiling radioligand binding; conditions: title: 30 μM

Sequence of Muscarinic M1 (P11229 whole entry): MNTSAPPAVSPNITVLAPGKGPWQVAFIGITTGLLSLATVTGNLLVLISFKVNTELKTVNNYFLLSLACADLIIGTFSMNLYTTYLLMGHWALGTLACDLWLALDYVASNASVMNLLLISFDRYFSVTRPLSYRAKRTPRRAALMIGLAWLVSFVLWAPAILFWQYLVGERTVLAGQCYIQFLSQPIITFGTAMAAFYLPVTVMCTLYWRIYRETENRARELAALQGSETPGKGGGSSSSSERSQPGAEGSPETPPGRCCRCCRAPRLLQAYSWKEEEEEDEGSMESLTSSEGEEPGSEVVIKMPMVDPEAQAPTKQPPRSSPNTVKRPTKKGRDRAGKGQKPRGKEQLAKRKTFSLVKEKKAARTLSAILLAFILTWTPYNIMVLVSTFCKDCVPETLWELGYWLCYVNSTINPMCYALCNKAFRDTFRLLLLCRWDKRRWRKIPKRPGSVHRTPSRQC
Sequence of Dopamine D1 (P21728 whole entry): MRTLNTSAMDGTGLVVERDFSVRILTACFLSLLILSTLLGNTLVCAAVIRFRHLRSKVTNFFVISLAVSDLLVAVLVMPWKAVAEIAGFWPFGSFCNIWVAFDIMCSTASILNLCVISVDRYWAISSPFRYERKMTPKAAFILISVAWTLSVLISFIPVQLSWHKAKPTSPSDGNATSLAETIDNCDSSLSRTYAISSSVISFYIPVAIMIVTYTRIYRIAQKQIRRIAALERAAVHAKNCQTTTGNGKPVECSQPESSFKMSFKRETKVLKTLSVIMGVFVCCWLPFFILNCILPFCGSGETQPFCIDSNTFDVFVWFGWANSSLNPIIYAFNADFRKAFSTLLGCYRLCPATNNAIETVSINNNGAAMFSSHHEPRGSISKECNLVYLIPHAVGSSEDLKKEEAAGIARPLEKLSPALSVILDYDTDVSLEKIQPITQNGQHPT

## O=C(NCc1ccc(OC(F)(F)F)cc1F)c1ccc2ncnn2c1 [Compound 19b]
Muscarinic M1
  inhibition: 1%
Tachykinin NK1
  inhibition: 2%
Dopamine D1
  inhibition: 22%
[1]; 30 μM, 72 targets
  displacement of any radioligand in the panel: ≤ 50%
[1]
  ancillary pharmacology panel result: clean ancillary pharmacology
[1]; listed as ONO-2920632
  ancillary pharmacology panel result: no significant activity
Serotonin (5-HT2B)
  inhibition: 14%
[2]
  inhibition at 10 µM: 20%
Muscarinic M3
  inhibition: 8%
Neuropeptide Y Y1
  inhibition: 2%
Imidazoline I2, Central
  % Inhibition at 10 µM: 2%
Rolipram
  % Inhibition at 10 µM: 13%
Dopamine D2S
  inhibition at 10 µM: 6%
[3]
  inhibition: 2%
[4]
  fraction unbound at 6 h, 1 µM: 0.28
Vanilloid
  inhibition: -8%
Glucocorticoid
  inhibition: 7%
Rat PO PK study; brain, 2 h, read-out: total brain concentration
  concentration at 2 h: 2680 nM
Rat PO PK study; brain, 24 h, read-out: total brain concentration
  concentration at 24 h: 2890 nM
Rat PO PK study; plasma
  Cmax: 10300 nM
  Tmax: 7 h
  half-life: > 24 h
[5]
  % Inhibition at 10 µM: -16%
Histamine H2
  inhibition: -20%
TREK-2; TREK-2 over TREK-1
  TREK-2 preference in 86Rb flux assay: ~46 fold
TREK-2; data is not shown
  activity at TREK-2 in 86Rb flux panel: submicromolar activity
Glutamate, NMDA, Glycine
  inhibition: -1%

Reference: publication PMC11887051, “Discovery of ONO-2920632 (VU6011887): A Highly Selective and CNS Penetrant TREK-2 (TWIK-Related K+ Channel 2) Preferring Activator In Vivo Tool Compound” (ACS Chemical Neuroscience, 2025)
